The structures appear in SMILES notation.

These results are taken from patent US9567318B2, “Substituted pyrimidine compounds and uses thereof” (Memorial Sloan-Kettering Cancer Center, priority 2009, dated 2017).

The test system of one experiment is 359 kinases. In words: Kinase screen (scanMAX, Ambit). The class given is binding. How it is done: FIG. 6. YK5 inhibits core biochemical functions of Hsp70s and disrupts the Hsp90/Hsp70 interaction. a) Refolding of denatured luciferase by Hsc70 and DJA2 at 30° C. was measured for the indicated times in the presence of YK5 (100 μM) or vehicle (left), or at 60 min in the presence of indicated concentrations of YK5 (right). b) Hsc70 ATPase rates were measured for reactions at 30° C. with the indicated combinations of Hsc70 and co-chaperones in the presence of vehicle (DMSO) or YK5 (100 μM). ADP production was monitored by thin layer chromatography separation of radiolabeled ADP from ATP and phosphorimaging analysis (lower). The data are consistent with those obtained from multiple repeat experiments (n≧2). c,d) SKBr3 cells were treated for 24 h with vehicle or indicated concentrations of YK5 (c) or for the indicated times with YK5 (10 μM) (d). Proteins isolated with anti-Hsp90 and Hsp70s antibodies (IP: Hsp90 or Hsp70), or present in the cell extract (Lysate) were analyzed by WB. […] Proteins were applied to a native gel and analyzed by immunoblotting. […]
Kinase Screen. […] The kinase concentration in the eluates was measured by qPCR. KINOMEscan's selectivity score (S) is a quantitative measure of compound selectivity. It is calculated by dividing the number of kinases that bind to the compound by the total number of distinct kinases tested, excluding mutant variants. […]

Experiment [1] deals with primary human AML cells (blasts, leukemia stem cells). In words: Treatment of primary AML cells. The settings on record: 24 h. The experiment is classed as cell-based. As to the method:
FIG. 20. Treatment of primary AML cells with YK5. YK5 kills both blast and cancer stem cells but not normal cells. Cells were treated with increasing concentrations of YK5 for 24 h. (a-b) % viability relative to untreated control is shown. Open bars: “Other” represent normal cells in the same patient (non-blast), Gray bars: Blasts (CD45 dim). red bars: leukemia stem cells (LSCs) (CD34+CD38-CD123+). (c) CFU (Colony forming units) decrease after treatment of primary AML cells with YK5. **p<0.001.
Strikingly, a high sensitivity of phenotypically described leukemia stem cells and of total leukemic blasts was observed (FIG. 20b; red vs. gray bars). […] Thus, a compound with cancer stem cell toxicity, such as YKs, is of significant value to improving cancer therapy.
Primary Cell Isolation and Culture. Primary human AML cells were obtained with informed consent. All manipulation and analysis of specimens was approved by the Weill Cornell Medical College Institutional Review Board. Mononuclear cells were isolated using Ficoll-Plaque (Pharmacia Biotech, Piscataway, N.Y.) density gradient separation. In some cases, cells were cryopreserved in freezing medium consisting of Iscove's modified Dulbecco medium (IMDM), 40% fetal bovine serum (FBS), and 10% dimethylsulfoxide (DMSO) or in CryoStor™ CS-10 (Biolife).

Experiment [2] concerns infiltrating ductal carcinoma tissue. In words: Ex vivo treatment of fresh breast tumor tissue. More on the design: species or system human. The conditions noted are these: 5 μM, 24 h post addition.

For the compound `C=CC(=O)Nc1cc(N)nc(Sc2c(OC)nc(N3CCN(C)CC3)nc2OC)n1` [YK5, N-(6-amino-2-(4,6-dimethoxy-2-(4-methylpiperazin-1-yl)pyrimidin-5-ylthio)pyrimidin-4-yl)acrylamide], in the experiment on 359 kinases (10 μM), the “activity against 359 kinases” value is “inert”. Moreover, in the experiment on 359 kinases (TREEspot interaction map), the “c-Met in the kinase screen” value was “potential low affinity kinase hit”. Further, in experiment [1], the “cell death in primary AML specimens” value was “induced potent cell death in blast, stem and progenitor populations”. Moreover, the “tumor cells dead or dying” value in experiment [2] is on record as 60%.
